Laboratory results reported in patent US11034725B2, “Compositions and methods for treating cardiovascular disease” (Genentech, Inc., priority 2016, dated 2021).
Like-named read-outs stand apart in the source and are kept apart here. Bridge positions count the residues as written; N and C are the ends. Square brackets hold non-standard residues; d marks the D form. Peptide text beside a SMILES is read from it. hArg = N=C(N)NCCCC[C@H](N)C(=O)O

Key:
[1] = biological target: T1, PCSK9 (Homo sapiens, UniProt Q8NBP7); experiment: PCSK9/EGF(A) TR-FRET binding assay
[2] = biological target: T2, PCSK9Δhelix (Homo sapiens, UniProt Q8NBP7); experiment: PCSK9Δhelix/Ab20 TR-FRET binding assay
T2 construct: Human PCSK9 construct M1-Q692 with an engineered TEV site (residue deletion Y166, R167); made in house; host or cells: CHO

[3] = tested on: His-EGF(A)-Fc; experiment: His-EGF(A)-Fc TR-FRET counterscreen
[4] = biological target: T1, PCSK9; experiment: PCSK9/LDLR-Fc TR-FRET assay (LDLR assay); format: binding; conditions: Table 11, LDLR-Fc, average ±S.D. of three experiments
Method: In black 1536-well assay plates (MaKO, Aurora® Microplates, Whitefish, Mont.), 40 nL of peptide in DMSO were preincubated with 2 μL His-tagged PCSK9 plus anti-His-allophycocyanin in assay buffer (50 mM Tris-HCl, pH 7.5, 150 mM NaCl, 2 mM CaCl2, 0.01% Tween®-20, 0.1% bovine gamma globulins, and protease inhibitor cocktail) for 30 min. Then 2 μL of Fc-tagged ligand and anti-Fc-europium in assay buffer were added and allowed to incubate for 2 h. The PCSK9 and ligand conditions for each assay are as follows: 10 nM C-terminal (His)8-tagged PCSK9 (“(His)8” disclosed as SEQ ID NO: 304) and 12 nM EGF(A)-Fc for the EGF(A) assay, 10 nM C-terminal (His)8-tagged PCSK9 (“(His)8” disclosed as SEQ ID NO: 304) and 2.5 nM LDLR-Fc for the LDLR assay, 1.25 nM C-terminal (His)8-tagged PCSK9Δhelix (“(His)8” disclosed as SEQ ID NO: 304) and 0.75 nM Ab20 for the Ab20 assay, and 2 nM His-EGF(A)-Fc alone for the counterscreen. In all assays, anti-His-allophycocyanin and anti-Fc-europium were used at 20 nM and 2 nM, respectively. Fluorescence was measured with excitation at 340 nm and emission at 671 nm and 618 nm. The TR-FRET ratio was calculated as fluorescence at 671 nm/fluorescence at 618 nm. The ratios were normalized to controls and plotted against peptide concentration to determine IC50 values (Screener Analyzer, Genedata, Basel, CH). The peptides were evaluated in three separate experiments per assay with 10-point titrations and n=2 per concentration. The values presented are the average ±S.D. of three independent experiments.

[5] = biological target: T2, PCSK9Δhelix; experiment: SPR affinity measurements of peptide binding (Example 8); conditions: for Kd: Table 10, binding to PCSK9Δhelix
Method: A Biacore™ T100 or Biacore™ 8K was adjusted to 20° C. The system was primed into assay buffer which consisted of 25 mM HEPES, pH 7.5, 0.15 M NaCl, 0.005% (v/v) Tween® 20, 0.2 mM tris(2-carboxyethyl)phosphine and optionally contained 0.1% (w/v) carboxymethylated dextran (average MW 10 kDa) and 0.2% (w/v) PEG (average MW 3450 Da) in order to reduce potential non-specific binding. Peptides were assayed by capturing fresh PCSK9 or PCSK9Δhelix after each binding regeneration cycle by exploiting a histidine tag and an NTA-sensor chip. The surface was charged with (His)8-tagged PCSK9 (approximately 800 RU captured). […] Compound 19 and Compound 20 were assayed in six serial two-fold dilutions from 100 nM to 3.1 nM. All peptides were analyzed in duplicate by serial injection (50 μL/min for 1 min) of peptide dilution from low to high concentration. The surface was then stripped of target by injecting 0.5 M EDTA, pH 8.0. This sequence was repeated for each peptide binding cycle and blank control cycles.
All SPR data was recorded in duplicate for five, or more serial dilutions, except for the two fusion peptides, which produced extremely low fitting error. Multicycle data (i.e. separate curves for each concentration) and single cycle data (i.e. single curve with serial injection of each concentration) were double referenced and fitted to an interaction model using BIAevaluation software. Peptide binding to PCSK9 produced deviations from a simple 1:1 binding interaction model that required application of a two-state model for determination of Kd while interactions with PCSK9Δhelix conformed well to simple 1:1 binding. Kinetic curvature was poorly defined for rapidly dissociating peptides and in these cases Kd was estimated from a steady-state dose response plot. Kd values were reported with associated standard error, a measure of confidence in that parameter value.

[6] = biological target: T1, PCSK9; experiment: Phage competition ELISA; format: binding
Method: The sequences of selected clones were fused to the N-terminus of M13 major coat protein (p8) using Kunkel mutagenesis method (Kunkel et al., Methods Enzymol 154, 367-82). The resulting construct was transformed to E. Coli. XL1 blue, single colony was grown in 1 mL 2YT supplemented with 50 μg/mL carbenicillin, 10 μg/mL Tetracycline and M13 KO7 helper phage at 37° C. for 2 h, Kanamycin was added to final concentration of 25 μg/mL, growth was continued at 37° C. for 6 h. The culture was transferred to 30 mL 2YT supplemented with 50 μg/mL carbenicillin and 25 μg/mL kanamycin and grown at 37° C. overnight. The next day, the phage was harvested and purified using the standard protocol (Tonikian et al. Nat Protoc. 2007; 2(6):1368-86). The serially diluted phage solution was applied to the biotinylated PCSK9 and biotinylated PCSK9Δhelix that had been immobilized for 15 min on a 384-well MaxiSorp ImmunoPlate previously coated with 5 μg/mL NeutrAvidin and blocked with Block buffer. The plate was incubated at 4° C. for 1 h, washed 10 times with PT buffer (PBS, 0.05% Tween® 20). The bound phage was detected with anti-M13-HRP and the ELISA signal was read at OD450 nm. The background was ELISA signal that the phage directly bound to NeutrAvidin-coated plate. The data was plotted and the curve fitted with KaleidaGraph. Sub-saturating phage concentration that gave 80% of maximum binding signal was determined by the binding curve.
IC50 measurements were performed by mixing a fixed sub-saturating concentration of peptide-displaying phage with a serial dilution of synthetic peptides in PBT buffer. The mixture was added to plates coated with PCSK9 and PCSK9Δhelix and incubated for 1 h at room temperature. The plates were then washed 10 times with PBT buffer and the bound phage was detected by anti-M13-HRP. The data was plotted, curve fitted and IC50 derived by use of KaleidaGraph. All measurements were repeated 3 times independently.

[7] = biological target: T2, PCSK9Δhelix; experiment: Surface plasmon resonance biosensor-based affinity analysis (Example 4); format: binding; conditions: Table 7, Target PCSK9Δhelix, SPR at 20° C.; read-out: Kd
[8] = TR-FRET, Table 8E, additional compounds, read-out: PCSK9/EGF(A) IC50
[9] = Table 11, average ±S.D. of three experiments, read-out: EGF(A) IC50
[10] = TR-FRET, Table 8E, additional compounds, read-out: PCSK9Δhelix/Ab20 IC50
[11] = Table 11, average ±S.D. of three experiments, read-out: Ab20 IC50
[12] = TR-FRET counterscreen, Table 8E, additional compounds
[13] = TR-FRET, Example 7, read-out: PCSK9/EGF(A) IC50
[14] = TR-FRET, Example 7, read-out: PCSK9Δhelix/Ab20 IC50
[15] = Table 10, average ±S.D. of three experiments, read-out: Ab20 IC50

Row | Molecule | IC50 [1, 8] [µM] | IC50 [1, 9] [µM] | IC50 [2, 10] [µM] | IC50 [2, 11] [µM] | IC50 [3, 12] [µM] | IC50 [4] [µM] | Kd [5] [µM] | IC50 [1, 13] [µM] | IC50 [2, 14] [µM] | IC50 [2, 15] [µM] | IC50 ([3]; counterscreen, Example 7) [µM] | Kd [7] [µM] | further results
1 | CC[C@H](C)[C@H](NC(=O)[C@H](CCCCNC(=N)N)NC(=O)[C@@H](NC(=O)[C@H](CC(C)C)NC(=O)[C@H](CC(N)=O)NC(=O)[C@H](Cc1c[nH]c2ccccc12)NC(C)=O)C(C)C)C(=O)NCC(=O)N[C@@H](CC(C)C)C(=O)N[C@@H](CC(C)C)C(=O)N[C@@H](CCCNC(=N)N)C(N)=O [Compound 192, Ac-WNLV(homoR)IGLLR-NH2] (Ac-WNLV[hArg]IGLLR-NH2) | ≥ 50 | > 50 | 5.3 | 5.55 ± 0.36 | ≥ 50 | > 50 | 1 |  |  |  |  |  | improvement of binding affinity by homo-arginine substitution ([5]; Table 10, versus Compound 53): 14 fold
2 | CC[C@H](C)[C@H](NC(=O)[C@H](CCCCNC(=N)N)NC(=O)[C@@H](NC(=O)[C@H](CC(C)C)NC(=O)[C@H](CC(N)=O)NC(=O)[C@H](Cc1c[nH]c2ccccc12)NC(=O)CNC(=O)[C@@H]1CCCN1C(=O)[C@H](Cc1ccccc1)NC(=O)[C@H](CO)NC(=O)[C@H](CCC(=O)O)NC(C)=O)C(C)C)C(=O)NCC(=O)N[C@@H](CC(C)C)C(=O)N[C@@H](CC(C)C)C(=O)N[C@@H](CCCNC(=N)N)C(N)=O [Compound 227] (Ac-ESFPGWNLV[hArg]IGLLR-NH2) | 2.5 | 23.2 ± 0.3 | 24 | 2.51 ± 0.11 | ≥ 50 | > 50 |  |  |  |  |  |  | lower inhibitory activity versus Compound 229 ([1]; Table 11): approximately 3 fold
3 | CC[C@H](C)[C@H](NC(=O)[C@H](CCCCNC(=N)N)NC(=O)[C@@H](NC(=O)[C@H](CC(C)C)NC(=O)[C@H](CC(N)=O)NC(=O)[C@H](Cc1c[nH]c2ccccc12)NC(=O)CNC(=O)[C@@H]1CCCN1C(=O)[C@H](Cc1ccc(O)cc1)NC(=O)[C@H](CO)NC(=O)[C@H](CC(=O)O)NC(C)=O)C(C)C)C(=O)NCC(=O)N[C@@H](CC(C)C)C(=O)N[C@@H](CC(C)C)C(=O)N[C@@H](CCCNC(=N)N)C(N)=O [Compound 230] (Ac-DSYPGWNLV[hArg]IGLLR-NH2) | 2.3 | 24.2 ± 0.8 | 24 | 2.42 ± 0.2 | ≥ 50 | > 50 |  |  |  |  |  |  | 
4 | CC[C@H](C)[C@H](NC(=O)[C@H](CCCCNC(=N)N)NC(=O)[C@@H](NC(=O)[C@H](CC(C)C)NC(=O)[C@H](CC(N)=O)NC(=O)[C@H](Cc1c[nH]c2ccccc12)NC(=O)CNC(=O)[C@@H]1CCCN1C(=O)[C@H](Cc1ccc(O)cc1)NC(=O)[C@H](CO)NC(=O)[C@H](CCC(=O)O)NC(C)=O)C(C)C)C(=O)NCC(=O)N[C@@H](CC(C)C)C(=O)N[C@@H](CC(C)C)C(=O)N[C@@H](CCCNC(=N)N)C(N)=O [Compound 231] (Ac-ESYPGWNLV[hArg]IGLLR-NH2) | 1.6 | 15.8 ± 0.1 | 17 | 1.49 ± 0.1 | ≥ 50 | > 50 |  |  |  |  |  |  | 
5 | CC[C@H](C)[C@@H]1NC(=O)[C@H](CCCNC(=N)N)NC(=O)[C@H](CCC(N)=O)NC(=O)[C@H](CC(C)C)NC(=O)[C@H](CC(N)=O)NC(=O)[C@H](Cc2c[nH]c3ccccc23)NC(=O)[C@@H]2CCCN2C(=O)[C@H]([C@@H](C)CC)NC(=O)[C@H](Cc2ccccc2)NC(=O)[C@@H](NC(=O)CNC(=O)[C@@H](N)CO)CSSC[C@@H](C(N)=O)NC(=O)[C@H](CC(C)C)NC(=O)[C@H](CC(C)C)NC(=O)CNC1=O [Compound K9gvpep1] (H-SGCFIPWNLQRIGLLC-NH2; disulfide 3-16) |  |  |  |  |  |  |  |  |  |  |  |  | competition with binding of phage-displayed Pep2-8 to PCSK9 [6]: did not compete
6 | CC[C@H](C)[C@@H]1NC(=O)[C@H](CCCNC(=N)N)NC(=O)[C@H](CCC(N)=O)NC(=O)[C@H](CC(C)C)NC(=O)[C@H](CC(N)=O)NC(=O)[C@H](Cc2c[nH]c3ccccc23)NC(=O)[C@@H]2CCCN2C(=O)[C@H](CC(C)C)NC(=O)[C@H](CCCNC(=N)N)NC(=O)[C@@H](NC(=O)CNC(=O)[C@@H](N)CO)CSSC[C@@H](C(N)=O)NC(=O)[C@@H]2CCCN2C(=O)[C@H](CC(C)C)NC(=O)CNC1=O [Compound K9gvpep4] (H-SGCRLPWNLQRIGLPC-NH2; disulfide 3-16) |  |  |  |  |  |  |  |  |  |  |  |  | competition with binding of phage-displayed Pep2-8 to PCSK9 [6]: did not compete
7 | Ac-DLMPWNLVRIGLLR-NH2 [Compound 35] |  |  |  |  |  |  | 1.38 | > 50 | 4.8 | 7.9 ± 0.1 | > 50 |  | 
8 | Ac-LMPWNLVRIGLLR-NH2 [Compound 50] |  |  |  |  |  |  | 0.47 | > 50 | 2.66 | 3.6 ± 0.2 | > 50 | 1.6 | 
9 | Ac-MPWNLVRIGLLR-NH2 [Compound 51] |  |  |  |  |  |  | 1.4 | > 50 | 4.69 | 6.6 ± 0.3 | > 50 | 2.7 | 
10 | Ac-WNLVRIGLLR-NH2 [Compound 53] |  |  |  |  |  |  | 14 | > 50 | 33.1 | 52.4 ± 3.4 | > 50 | 33.8 | reduction of binding affinity ([5]; Table 10, elimination of Pro4): 10 fold
